Test results: patent publication US20060258754A1, “Method of treating endothelial dysfunction, oxidative stress and related diseases” (priority 2004, published 2006)
Entries after “also recorded” stand apart in the source; their conditions may differ.

What was measured:
[1] = test system: vascular mesenteric bed; assay: Rat arteriolar mesenteric bed: acetylcholine-evoked decrease in perfusion pressure after 4-week oral treatment; type: in vivo, alloxan-diabetic male Wistar rats; conditions: for effect on microvascular endothelial dysfunction: chronic (4-week) oral administration, highest acetyl choline concentrations, FIG. 4
Procedure: (§1) Male Wistar rats, weighing between 230-250 g, fed regular chow, with free access to water were separated in four groups (n=10/each). The first two groups, termed normoglycemic, were treated with saline (0.1 mL/100 g/12 h) by the oral route (intragastric gavage) or untreated for four weeks. The second two groups, hyperglycemic, were treated with saline (0.1 mL/100 g/12 h) or treated with D-chiro-inositol (20 mg/kg/12 h) under the same protocol. […] Diabetes was induced by a single intravenous injection of 45 mg/kg alloxan as described by Sannomiya et al., 1997 ( ). Diabetes was diagnosed 96 h after injection by blood glucose assay >200 mg/dL. All protocols were approved by the local committee and follow the Guide for the Care and Use of Laboratory Animals published by the US National Institutes of Health (NIH Publication No. 85-23, revised 1996).
The mesentery was carefully removed by cutting close to the intestinal border with a small scissors. […] The vascular bed was rapidly perfused with warm KHS (37° C.; pH 7.4; gassed with 95% O2 in 5% CO2) in an open system with a constant flow of 4 ml/min maintained with a peristaltic pump. Alterations in perfusion pressure were continuously recorded in a four-channel polygraph (Narco Biosystems, Houston, Tex., USA) by means of a pressure transducer (P23 Gould Stratham, Oxnard, Calif., USA). After a 30 minute equilibration period, phenylephrine (1 to 5 μM) was infused by means of an infusion pump at a constant rate (0.1 ml/min) in order to achieve a stable perfusion pressure (100-120 mm Hg). Dose response curves were performed with vasodilators, i.e. acetylcholine (Ach; 10^-9 to 10^-3 M). Drugs were injected as 50 μL boluses, previously shown not to effect perfusion pressure in a side arm just above the cannula in the mesenteric artery. At least 6 separate experiments were performed each in duplicate.

[2] = test system: diabetic RbCC; assay: Relaxant response of diabetic RbCC to NO and Ach after in vitro inositol addition; conditions: in vitro inositol addition (one hour)
Procedure: NO action was investigated in aortic rings and RbCC. […] The data in FIGS. 14 are expressed as mean±SEM of 5 experimental units. * p<0.05, ANOVA followed by Tukey-Kramer, diab (C) vs. Inositol treated. # p<0.05, ANOVA followed by Tukey-Kramer, Eugly vs. Inositol treated. In FIG. 14, Veh=vehicle; C=diabetic control; Diab=diabetic control; Eugly=euglycemic tissue. Relaxation was restored toward or to normal by incubation with inositols.

[3] = test system: ROS generated by xanthine/xanthine oxidase; assay: Superoxide assay in vitro: xanthine/xanthine oxidase, NBT reduction; type: biochemical; conditions: low micromolar concentrations, FIG. 10
Procedure: Superoxide radicals were generated by the reaction of xanthine (1 mM) and xanthine oxidase ([…]) in air-saturated potassium phosphate buffer (pH 7.8 at 25° C.). Superoxide anions were detected by nitroblue tetrazolium (NBT—50 μM) which undergoes reduction by O2-. to its formazan. The rate of reduction was monitored spectrophotometrically at 560 nm with an Ultrospec 1000 (Pharmacia Biotech, Cambridge, England). SOD-1, by scavanging O2-. Diminishes the rate of reduction of NBT. The volume was fixed at 2 mL. Each experiment was run in duplicate.

[4] = Blood glucose and serum triglycerides after chronic administration in alloxan diabetic rats; type: in vivo, alloxan induced diabetic rats; conditions: 20 mg/kg 2× daily for 4 weeks
Excerpt: The use of DCI and its derivative for the treatment of a variety of metabolic disorders, more specifically those that are related to insulin resistance have been the subject matter of patents and publications. The treatment of insulin resistance in humans by the administration of DCI was the subject matter of U.S. Pat. No. 5,124,360. Since DCI is found in the food chain it has a safety profile that warrants its use as a nutritional supplement. A method of treating a cluster of diseases with elevated blood sugar by the administration of a dietary supplement of DCI was the subject of U.S. Pat. No. 5,428,066.
as §1, with “All protocols were approved by the local committee and follow the Guide for the Care and Use of Laboratory Animals published by the US National Institutes of Health (NIH Publication No. 85-23, revised 1996).” left out

[5] = human PCOS; cited from earlier work
[6] = several publications; cited from earlier work
[7] = listed as dibutyryl D-chiro-inositol

Structure (SMILES) | effect on microvascular endothelial dysfunction [1] | effect on microvascular endothelial dysfunction [1, 7] | relaxant response to graded concentrations of NO and to Ach [2] | reduction of ROS generated by xanthine/xanthine oxidase [3] | reduction of ROS generated by xanthine/xanthine oxidase [3, 7] | effect on microvascular endothelial dysfunction ([1]; listed as D-chiro-inositol) | maximal decrease in perfusion pressure to acetylcholine ([1]; tissues from alloxan-diabetic rats treated with D-chiro-inositol 20 mg/kg/12 h by gavage for 4 weeks, saline-treated diabetic 23±5%, normoglycemic 61±3.7%) [%] | blood glucose [4] | serum triglycerides [4] | ovulation, glucose tolerance and metabolic balance in PCOS [5] | hyperglycemia, triglyceridemia and glucose disposal [6] | reduction of ROS generated by xanthine/xanthine oxidase ([3]; listed as D-chiro-inositol)
CCCC(=O)O[C@@H]1[C@@H](O)[C@@H](O)[C@H](O)[C@H](O)[C@H]1OC(=O)CCC [dbDCI, 3,4-dibutyryl-D-chiroinositol] | perhaps slightly better than pinitol and DCI | perhaps slightly better than pinitol and D-chiro-inositol | more effective than the other three inositols | reduced ROS in a low micromolar concentration dependant manner; also recorded: statistically more effective than the other 3 inositols | statistically more effective than the other 3 inositols |  |  |  |  |  |  | 
OC1C(O)C(O)C(O)C(O)C1O [DCI, D-chiro-inositol] | approximately equally effective |  |  | reduced ROS in a low micromolar concentration dependant manner |  | effective | 52±6 | decreased | decreased | effective in human PCOS in restoring ovulation, glucose tolerance and metabolic balance | effective decrease of hyperglycemia, triglyceridemia and enhanced glucose disposal | equally effective
